According to paper PMC7408547, “Bivalent Inhibitor with Selectivity for Trimeric MMP-9 Amplifies Neutrophil Chemotaxis and Enables Functional Studies on MMP-9 Proteoforms” (Cells, 2020):

Key:
[1] = target: T1, recombinant human MMP-9 trimers (Homo sapiens, UniProt P14780); assay: Gelatin degradation assay, recombinant MMP-9 trimers; type: biochemical
T1 construct: made in house; host or cells: Sf9 insect cells
Method: Compounds 5 and 7 were synthesized as previously reported. Full-length human proMMP-9 was produced by recombinant expression in Sf9 insect cells and purified by gelatin-Sepharose chromatography as previously described. Stable full-length proMMP-9 monomers and trimers were separated by glycerol gradient ultracentrifugation as previously described. ProMMP-9 mixture and the separated monomers and trimers were activated by incubation with the catalytic domain of MMP-3 (cat. No. 444217, Merck Millipore, Darmstadt, Germany) as previously described. Activation of proMMP-9 was confirmed by a band shift of ±10 kDa, corresponding to the removal of the auto-inhibitory propeptide domain and by detection of gelatinolytic activity with a previously described gelatin degradation assay. MMP-9 monomers and trimers purified from human neutrophils were purchased (Cat. No. 444,231 and 444232, Sigma-Aldrich, St. Louis, MO, USA). Examples of sample purities and activations can be found in Supplementary Figure S1. Recombinant human proMMP-2 (CHO cell-derived), proMMP-3 (NS0 cell-derived), proMMP-7 (NS0 cell-derived) and proMMP-8 (NS0 cell-derived) were purchased from R & D systems (Minneapolis, MN, USA), dissolved in assay buffer (150 mM NaCl, 5 mM CaCl2, 0.01% Tween-20, 50 mM Tris, pH 7.4) to a concentration of 100 µg/mL and activated by incubation with 1 mM p-aminophenylmercuric acetate for, respectively, 1h, 6h, 2h and 1h. Activation of MMPs was confirmed by a band shift of approximately 10 kDa, corresponding to the removal of the propeptide domain. MMP-14/MT1-MMP (NS0 cell-derived) was also purchased from R & D systems (Minneapolis, MN, USA) and activated by incubation with recombinant human furin (cat. No. 1503-SE-010, R & D systems, Minneapolis, MO, USA) in activation buffer (50 mM Tris, 1 mM CaCl2, 0.5% Brij-35, pH 9) for 1.5 h and activity was tested in assay buffer (50 mM Tris, 3 mM CaCl2, 1 µM ZnCl2, pH 8.5). Active human neutrophil elastase (NE) was purchased from Abcam (Cambridge, UK) and for activity assays of NE the assay buffer was replaced by 200 mM Tris, pH 8.8. ADAM17/TACE (Sf 21 (baculovirus)-derived, R & D systems, Minneapolis, MO, USA) was diluted and evaluated in 25 mM Tris, 2.5 μM ZnCl2, 0.005% Brij-35, pH 9.0. All stocks of the compounds were evaluated for the presence of endotoxin using the EndoZyme II assay (Hyglos bioMérieux, Bernried am Starnberger See, Germany). Endotoxin levels in all concentrated stocks (2.5 mg/mL) were below the accepted limit of 0.5 EU/mL.
To determine the inhibition of gelatinolytic activity, we used a previously optimized gelatin degradation assay. Activated MMP-9, activated MMP-2, neutrophil elastase or supernatants of stimulated neutrophils, were incubated with different concentrations of inhibitors and incubated for 30 min at 37 °C. Next, dye-quenched gelatin (DQ™-gelatin, Invitrogen, Carlsbad, CA, USA) was added at a final concentration of 2.5 µg/mL and the increase in fluorescence over time was measured with the CLARIOstar microplate reader (BMG Labtech, Ortenberg, Germany). For other MMPs, the OmniMMP substrate peptide (Mca-PLGL-Dpa-AR-NH2, cat. no. BML-P126-0001, Enzo Life Sciences, Farmingdale, NY, USA) was used at a final concentration of 2.5 µg/mL. For ADAM17 the fluorogenic peptide Mca-PLAQAV-Dpa-RSSSR-NH2 (ES003, R & D systems, Minneapolis, MO, USA) and for neutrophil elastase the fluorogenic substrate MeOSuc-AAPV-AMC (cat. no. 324740, Merck Millipore, Darmstadt, Germany) were used. Proteolytic activity was determined by linear regression of the fluorescence curve and the percentage inhibition was calculated through comparison with the positive control (no inhibitors). When testing supernatants from human neutrophils, the assay was performed in the presence of 20 µM neutrophil elastase inhibitor (Elastase Inhibitor IV, Calbiochem, Darmstadt, Germany).

MMP-3 = target: T2, MMP-3 (Homo sapiens, UniProt P08254); assay: MMP-3 OmniMMP peptide assay; type: biochemical; conditions: OmniMMP substrate peptide
T2 construct: purchased R & D systems; host or cells: NS0 cells
Method: (§1) Compounds 5 and 7 were synthesized as previously reported. Full-length human proMMP-9 was produced by recombinant expression in Sf9 insect cells and purified by gelatin-Sepharose chromatography as previously described. Stable full-length proMMP-9 monomers and trimers were separated by glycerol gradient ultracentrifugation as previously described. ProMMP-9 mixture and the separated monomers and trimers were activated by incubation with the catalytic domain of MMP-3 (cat. No. 444217, Merck Millipore, Darmstadt, Germany) as previously described. […] ADAM17/TACE (Sf 21 (baculovirus)-derived, R & D systems, Minneapolis, MO, USA) was diluted and evaluated in 25 mM Tris, 2.5 μM ZnCl2, 0.005% Brij-35, pH 9.0. All stocks of the compounds were evaluated for the presence of endotoxin using the EndoZyme II assay (Hyglos bioMérieux, Bernried am Starnberger See, Germany). […]
(§2) To determine the inhibition of gelatinolytic activity, we used a previously optimized gelatin degradation assay. […] Next, dye-quenched gelatin (DQ™-gelatin, Invitrogen, Carlsbad, CA, USA) was added at a final concentration of 2.5 µg/mL and the increase in fluorescence over time was measured with the CLARIOstar microplate reader (BMG Labtech, Ortenberg, Germany). […]

neutrophil elastase = target: T3, neutrophil elastase (Homo sapiens, UniProt P08246); assay: Neutrophil elastase activity assay (fluorogenic elastase peptide and gelatin); type: biochemical; conditions: fluorogenic elastase substrate and gelatin; tested up to an inhibitor concentration of 50 µM
T3 construct: Active human neutrophil elastase (NE) was purchased from Abcam; purchased Abcam
T3 sequence (P08246 30-267): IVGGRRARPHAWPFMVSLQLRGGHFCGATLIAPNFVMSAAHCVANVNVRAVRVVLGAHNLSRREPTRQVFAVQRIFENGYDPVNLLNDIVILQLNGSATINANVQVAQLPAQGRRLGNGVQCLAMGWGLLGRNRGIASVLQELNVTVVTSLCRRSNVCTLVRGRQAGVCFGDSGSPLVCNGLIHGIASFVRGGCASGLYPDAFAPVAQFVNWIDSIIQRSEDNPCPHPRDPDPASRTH
Method: as §1, §2

U-87 cell line = assay: U-87 cell viability (LIVE/DEAD); type: cell-based; conditions: up to a concentration of 20 µM; 17 h
Method: Toxicity of compounds 5 and 7 was evaluated in vitro on the U-87 cell line. Briefly, U-87 cells were seeded in 96-well plates (cat. No. 92096, TPP Techno Plastic Products, Trasadingen, Switzerland) at 2000 cells/well in DMEM FluoroBrite containing 10% FBS and incubated for 24 h. Cells were washed and further grown in DMEM FluoroBrite with 5% KnockOut™ Serum Replacement (Gibco, Waltham, MA, USA). Compounds 5 and 7 were added to the wells in a 1:2 dilution series starting at 20 µM and ending at 0.16 µM. To evaluate the effect of the compound on cell growth, confluence was determined every hour for 17h using the Incucyte® S3 Live-Cell Analysis System (Sartorius, Göttingen, Germany). Next, cells were stained with the LIVE/DEAD™ Viability/Cytotoxicity Kit for mammalian cells (Invitrogen, Carlsbad, CA, USA; cat. # L3224) and cell viability was evaluated. Data were normalized to the mean confluence of wells containing no inhibitors. To measure the stability of the compounds, fresh blood was collected from heathy mice by cardiac puncture with a heparin-coated needle and syringe and 30UI/mL heparin was added. Next, compound 5, compound 7 or vehicle (DMSO) was added to the blood at a final concentration of 500 µM and incubated at 37 °C. […] Background inhibition was subtracted and results were expressed as percentage inhibition.

[2] = recombinant human MMP-9 (Sf9) tri, gelatin degradation

T1 sequence (P14780 107-707 limits assumed): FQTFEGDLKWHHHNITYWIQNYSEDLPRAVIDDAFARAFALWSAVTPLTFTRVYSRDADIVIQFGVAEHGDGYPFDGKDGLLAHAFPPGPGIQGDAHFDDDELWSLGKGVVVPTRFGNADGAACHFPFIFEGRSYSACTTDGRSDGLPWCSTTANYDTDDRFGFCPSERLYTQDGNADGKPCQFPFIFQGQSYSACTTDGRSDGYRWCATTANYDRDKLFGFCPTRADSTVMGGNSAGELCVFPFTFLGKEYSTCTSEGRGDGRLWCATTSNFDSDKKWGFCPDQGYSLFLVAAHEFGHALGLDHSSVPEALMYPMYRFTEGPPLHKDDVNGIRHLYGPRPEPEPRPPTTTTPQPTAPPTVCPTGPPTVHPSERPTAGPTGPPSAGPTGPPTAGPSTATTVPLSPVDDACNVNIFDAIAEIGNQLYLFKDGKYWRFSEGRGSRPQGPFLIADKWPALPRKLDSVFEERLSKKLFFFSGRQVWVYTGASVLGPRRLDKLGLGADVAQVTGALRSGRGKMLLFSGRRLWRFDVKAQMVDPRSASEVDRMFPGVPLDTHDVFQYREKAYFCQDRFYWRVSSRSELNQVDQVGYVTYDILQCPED
T2 sequence (P08254 100-477): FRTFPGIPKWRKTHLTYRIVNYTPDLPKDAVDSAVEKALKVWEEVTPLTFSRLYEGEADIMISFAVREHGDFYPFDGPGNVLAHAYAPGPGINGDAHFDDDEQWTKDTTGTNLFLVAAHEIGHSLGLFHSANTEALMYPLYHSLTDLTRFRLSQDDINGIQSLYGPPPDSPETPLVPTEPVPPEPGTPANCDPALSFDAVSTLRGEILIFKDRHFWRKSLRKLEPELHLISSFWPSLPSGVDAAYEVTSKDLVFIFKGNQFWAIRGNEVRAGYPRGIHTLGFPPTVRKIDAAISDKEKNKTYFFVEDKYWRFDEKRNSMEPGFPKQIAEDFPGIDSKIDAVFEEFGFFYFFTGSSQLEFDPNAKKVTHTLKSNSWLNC

Row | SMILES | IC25 [1, 2] [µM] | IC50 [1, 2] [µM] | IC75 [1, 2] [µM] | IC50 (MMP-3) [µM] | IC50 (neutrophil elastase) | cellular toxicity (cell viability of U-87 cells) (U-87 cell line) | fold more potent at inhibiting gelatinolysis by trimeric versus monomeric MMP-9 ([1]; recombinant human MMP-9, gelatin substrate)
1 | CC(C)[C@H](C(=O)O)N(CCNC(=O)c1ccccc1)S(=O)(=O)c1ccc(-c2ccccc2)cc1 [Compound 5] | 0.526 | 2.25 | 9.66 | 0.965 | no inhibition ^† | nor did they induce cellular toxicity | 
2 | CC(C)[C@H](C(=O)O)N(CCNC(=O)c1cccc(C(=O)NCCN([C@@H](C(=O)O)C(C)C)S(=O)(=O)c2ccc(-c3ccccc3)cc2)c1)S(=O)(=O)c1ccc(-c2ccccc2)cc1 [Compound 7] |  | 0.00018 | 0.018 | 0.0077 | no inhibition ^† | nor did they induce cellular toxicity | over 1000 fold
